Measured values as given in patent US8729122B2, “Pharmaceutical and nutraceutical compositions of abscisic acid” (Valent BioSciences Corporation, priority 2010, dated 2014).

Tests used:
[1] = Fetal data at scheduled necropsy; type: in vivo, rats
From the text: Observations and testing results from this study can be seen in Tables 1, 3 and 6-13 below.
Further supporting data can be seen below in Tables 10 and 11 showing that at necropsy fetus numbers and follicle size increase with the addition of S-ABA.

[2] = tested on: rats; experiment: Rat neurotoxicity testing; type: in vivo; settings: especially female
[3] = tested on: rats; experiment: Two Generation Reproduction Toxicity Study (dietary S-ABA); type: in vivo; settings: for SPLEEN WEIGHT, % DIFFERENCE: versus 0 PPM
Experimental: Two Generation Reproduction Toxicity Study
This study was conducted to determine the potential adverse effects of the test substance on reproduction in a 2-generation study. This included determining the effects of the test substance on male and female reproductive processes, including gonadal function, estrous cyclicity, mating behavior, conception, gestation, parturition, lactation, weaning, and on growth and development of the offspring. A minimum of 1 litter was produced in each generation.
Three groups of male and female were offered S-ABA, continuously in the diet for at least 70 consecutive days prior to mating. Target tests substance concentrations were 10,000, 15,000, and 20,000 ppm for the F0 and F1 generations. A concurrent control group of 30 rats/sex was offered the basal diet continuously throughout the study. F0 animals were approximately 7 weeks of age at the initiation of test diet administration. The test diet was administered to the offspring selected to become the F1 generation following weaning. The F0 and F1 males continued to receive the test substance throughout mating and continuing through the day prior to euthanasia. The F0 and F1 females continued to receive the test substance throughout mating, gestation, and lactation, and through the day of euthanasia. For both generations (F1 and F2), 8 pups per litter (4 per sex, when possible) were selected to reduce the variability among the litters. Offspring (30/sex/group, if possible) from the pairing of the F0 animals were selected to constitute the F1 generation.
All animals were observed twice daily for appearance and behavior. Clinical observations, body weights, and food consumption were recorded at appropriate intervals for males throughout the study and for females prior to mating and during gestation and lactation. All F0 and F1 females were allowed to deliver and rear their pups until weaning on lactation day 21. Clinical observations, body weights, and sexes for F1 and F2 pups were recorded at appropriate intervals. Nonselected F1 pups and all surviving F2 pups were necropsied. Selected organs were weighed from 1 pup/sex/litter from F1 and F2 pups that were necropsied. Each surviving F0 and F1 parental animal received a complete detailed gross necropsy following the completion of weaning of the F1 and F2 pups, respectively; selected organs were weighed. Spermatogenic endpoints were recorded for all F0 and F1 males, and ovarian primordial follicle counts were recorded for all F0 and F1 females in the control and high-exposure groups and all F0 and F1 females suspected of reduced fertility. Designated tissues from all F0 and F1 parental animals were examined microscopically.

[4] = second generation pups, 10,000 PPM
[5] = second generation pups, 15,000 PPM
[6] = second generation pups, 20,000 PPM

CC1=CC(=O)CC(C)(C)[C@@]1(O)/C=C/C(C)=C\C(=O)O [S-ABA, (S)-(+)-abscisic acid]
FEMALE fetuses at scheduled necropsy, MEAN ([1]; group 2, 500 MG/KG/DAY): 7.2
MALE fetuses at scheduled necropsy, MEAN ([1]; group 2, 500 MG/KG/DAY): 7.5
VIABLE FETUSES at scheduled necropsy, MEAN ([1]; group 2, 500 MG/KG/DAY): 14.7
FEMALE fetuses at scheduled necropsy, MEAN ([1]; group 3, 750 MG/KG/DAY): 6.6
MALE fetuses at scheduled necropsy, MEAN ([1]; group 3, 750 MG/KG/DAY): 7.5
VIABLE FETUSES at scheduled necropsy, MEAN ([1]; group 3, 750 MG/KG/DAY): 14.2
FEMALE fetuses at scheduled necropsy, MEAN ([1]; group 4, 1,000 MG/KG/DAY): 8.3
MALE fetuses at scheduled necropsy, MEAN ([1]; group 4, 1,000 MG/KG/DAY): 6.8
VIABLE FETUSES at scheduled necropsy, MEAN ([1]; group 4, 1,000 MG/KG/DAY): 15.1
alertness [2]: heighten alertness
SPERM PRODUCTION RATE, mean ([3]; 10,000 PPM): 10.3 MILLIONS/GRAM/DAY
Mean Live Offspring Born (per litter) ([3]; 10,000 ppm): 12.3
Offspring Born ([3]; 10,000 ppm): 322
Offspring FOUND DEAD ([3]; 10,000 ppm): 4
POSTNATAL SURVIVAL, BIRTH-4 (PRE-SELECT), mean ([3]; 10,000 ppm): 98.6 % PER LITTER
POSTNATAL SURVIVAL, POSTNATAL DAY 0 (RELATIVE TO # BORN), mean ([3]; 10,000 ppm): 99.7 % PER LITTER
POSTNATAL SURVIVAL, POSTNATAL DAY 0-1, mean ([3]; 10,000 ppm): 100.0 % PER LITTER
POSTNATAL SURVIVAL, POSTNATAL DAY 1-4 (PRE-SELECTION), mean ([3]; 10,000 ppm): 98.9 % PER LITTER
POSTNATAL SURVIVAL, POSTNATAL DAY 4 (POST-SELECT)-21, mean ([3]; 10,000 ppm): 99.5 % PER LITTER
POSTNATAL SURVIVAL, POSTNATAL DAY 4 (POST-SELECTION)-7, mean ([3]; 10,000 ppm): 99.5 % PER LITTER
POSTNATAL SURVIVAL, POSTNATAL DAY 7-14, mean ([3]; 10,000 ppm): 100.0 % PER LITTER
POSTNATAL SURVIVAL, POSTNATAL DAY 14-21, mean ([3]; 10,000 ppm): 100.0 % PER LITTER
OFFSPRING WEIGHT, mean ([3]; 10,000 ppm, female, postnatal day 1): 6.6 grams
OFFSPRING WEIGHT, mean ([3]; 10,000 ppm, female, postnatal day 4): 9.1 grams
OFFSPRING WEIGHT, mean ([3]; 10,000 ppm, female, postnatal day 7): 14.3 grams
OFFSPRING WEIGHT, mean ([3]; 10,000 ppm, female, postnatal day 14): 29.9 grams
OFFSPRING WEIGHT, mean ([3]; 10,000 ppm, female, postnatal day 21): 45.5 grams
OFFSPRING WEIGHT, mean ([3]; 10,000 ppm, male, postnatal day 1): 7.1 grams
OFFSPRING WEIGHT, mean ([3]; 10,000 ppm, male, postnatal day 4): 9.7 grams
OFFSPRING WEIGHT, mean ([3]; 10,000 ppm, male, postnatal day 7): 15.2 grams
OFFSPRING WEIGHT, mean ([3]; 10,000 ppm, male, postnatal day 14): 30.9 grams
OFFSPRING WEIGHT, mean ([3]; 10,000 ppm, male, postnatal day 21): 47.9 grams
offspring mortality ([3]; 10,000 ppm, control 4.57%): 1.24%
SPERM PRODUCTION RATE, mean ([3]; 15,000 PPM): 10.7 MILLIONS/GRAM/DAY
Mean Live Offspring Born (per litter) ([3]; 15,000 ppm): 13.1
Offspring Born ([3]; 15,000 ppm): 375
Offspring FOUND DEAD ([3]; 15,000 ppm): 15
POSTNATAL SURVIVAL, BIRTH-4 (PRE-SELECT), mean ([3]; 15,000 ppm): 93.2 % PER LITTER
POSTNATAL SURVIVAL, POSTNATAL DAY 0 (RELATIVE TO # BORN), mean ([3]; 15,000 ppm): 96.1 % PER LITTER
POSTNATAL SURVIVAL, POSTNATAL DAY 0-1, mean ([3]; 15,000 ppm): 98.5 % PER LITTER
POSTNATAL SURVIVAL, POSTNATAL DAY 1-4 (PRE-SELECTION), mean ([3]; 15,000 ppm): 98.5 % PER LITTER
POSTNATAL SURVIVAL, POSTNATAL DAY 4 (POST-SELECT)-21, mean ([3]; 15,000 ppm): 98.2 % PER LITTER
POSTNATAL SURVIVAL, POSTNATAL DAY 4 (POST-SELECTION)-7, mean ([3]; 15,000 ppm): 99.6 % PER LITTER
POSTNATAL SURVIVAL, POSTNATAL DAY 7-14, mean ([3]; 15,000 ppm): 98.7 % PER LITTER
POSTNATAL SURVIVAL, POSTNATAL DAY 14-21, mean ([3]; 15,000 ppm): 100.0 % PER LITTER
OFFSPRING WEIGHT, mean ([3]; 15,000 ppm, female, postnatal day 1): 6.6 grams
OFFSPRING WEIGHT, mean ([3]; 15,000 ppm, female, postnatal day 4): 8.8 grams
OFFSPRING WEIGHT, mean ([3]; 15,000 ppm, female, postnatal day 7): 14.0 grams
OFFSPRING WEIGHT, mean ([3]; 15,000 ppm, female, postnatal day 14): 29.8 grams
OFFSPRING WEIGHT, mean ([3]; 15,000 ppm, female, postnatal day 21): 45.8 grams
OFFSPRING WEIGHT, mean ([3]; 15,000 ppm, male, postnatal day 1): 6.9 grams
OFFSPRING WEIGHT, mean ([3]; 15,000 ppm, male, postnatal day 4): 9.3 grams
OFFSPRING WEIGHT, mean ([3]; 15,000 ppm, male, postnatal day 7): 14.7 grams
OFFSPRING WEIGHT, mean ([3]; 15,000 ppm, male, postnatal day 14): 30.8 grams
OFFSPRING WEIGHT, mean ([3]; 15,000 ppm, male, postnatal day 21): 47.8 grams
SPERM PRODUCTION RATE, mean ([3]; 20,000 PPM): 10.5 MILLIONS/GRAM/DAY
Mean Live Offspring Born (per litter) ([3]; 20,000 ppm): 12.3
Offspring Born ([3]; 20,000 ppm): 327
Offspring FOUND DEAD ([3]; 20,000 ppm): 11
POSTNATAL SURVIVAL, BIRTH-4 (PRE-SELECT), mean ([3]; 20,000 ppm): 96.8 % PER LITTER
POSTNATAL SURVIVAL, POSTNATAL DAY 0 (RELATIVE TO # BORN), mean ([3]; 20,000 ppm): 98.5 % PER LITTER
POSTNATAL SURVIVAL, POSTNATAL DAY 0-1, mean ([3]; 20,000 ppm): 99.7 % PER LITTER
POSTNATAL SURVIVAL, POSTNATAL DAY 1-4 (PRE-SELECTION), mean ([3]; 20,000 ppm): 98.5 % PER LITTER
POSTNATAL SURVIVAL, POSTNATAL DAY 4 (POST-SELECT)-21, mean ([3]; 20,000 ppm): 98.0 % PER LITTER
POSTNATAL SURVIVAL, POSTNATAL DAY 4 (POST-SELECTION)-7, mean ([3]; 20,000 ppm): 98.5 % PER LITTER
POSTNATAL SURVIVAL, POSTNATAL DAY 7-14, mean ([3]; 20,000 ppm): 99.5 % PER LITTER
POSTNATAL SURVIVAL, POSTNATAL DAY 14-21, mean ([3]; 20,000 ppm): 100.0 % PER LITTER
OFFSPRING WEIGHT, mean ([3]; 20,000 ppm, female, postnatal day 1): 6.6 grams
OFFSPRING WEIGHT, mean ([3]; 20,000 ppm, female, postnatal day 4): 8.8 grams
OFFSPRING WEIGHT, mean ([3]; 20,000 ppm, female, postnatal day 7): 14.5 grams
OFFSPRING WEIGHT, mean ([3]; 20,000 ppm, female, postnatal day 14): 30.5 grams
OFFSPRING WEIGHT, mean ([3]; 20,000 ppm, female, postnatal day 21): 46.6 grams
OFFSPRING WEIGHT, mean ([3]; 20,000 ppm, male, postnatal day 1): 7.0 grams
OFFSPRING WEIGHT, mean ([3]; 20,000 ppm, male, postnatal day 4): 9.3 grams
OFFSPRING WEIGHT, mean ([3]; 20,000 ppm, male, postnatal day 7): 15.1 grams
OFFSPRING WEIGHT, mean ([3]; 20,000 ppm, male, postnatal day 14): 31.2 grams
OFFSPRING WEIGHT, mean ([3]; 20,000 ppm, male, postnatal day 21): 48.1 grams
OVARIAN PRIMORDIAL FOLLICLE COUNTS, mean ([3]; females, 10,000 PPM): 257.5
OVARIAN PRIMORDIAL FOLLICLE COUNTS, mean ([3]; females, 15,000 PPM): 214.0
OVARIAN PRIMORDIAL FOLLICLE COUNTS, mean ([3]; females, 20,000 PPM): 270.3
PROSTATE WEIGHT, ORGAN WEIGHT, mean ([3]; male rats, 10,000 ppm in diet): 1.08 GRAMS
PROSTATE WEIGHT, ORGAN WEIGHT, mean ([3]; male rats, 15,000 ppm in diet): 1.13 GRAMS
PROSTATE WEIGHT, ORGAN WEIGHT, mean ([3]; male rats, 20,000 ppm in diet): 1.09 GRAMS
SPLEEN WEIGHT, mean ([3]; males, 10,000 PPM): 0.98 GRAMS
SPLEEN WEIGHT, % DIFFERENCE ([3]; males, 10,000 PPM): −2.0%
SPLEEN WEIGHT, mean ([3]; males, 15,000 PPM): 0.97 GRAMS
SPLEEN WEIGHT, % DIFFERENCE ([3]; males, 15,000 PPM): −3.0%
SPLEEN WEIGHT, mean ([3]; males, 20,000 PPM): 0.92 GRAMS
SPLEEN WEIGHT, % DIFFERENCE ([3]; males, 20,000 PPM): −8.9%
impact of prostate weight reduction on sperm production ([3]; rats, two-generation study): no impact on sperm production
SPLEEN WEIGHT, mean [3, 4]: 0.1989 GRAMS
SPLEEN WEIGHT, % DIFFERENCE [3, 4]: −14.8%
SPLEEN WEIGHT, mean [3, 5]: 0.1918 GRAMS
SPLEEN WEIGHT, % DIFFERENCE [3, 5]: −17.8%
SPLEEN WEIGHT, mean [3, 6]: 0.1979 GRAMS
SPLEEN WEIGHT, % DIFFERENCE [3, 6]: −15.2%
